We go through 21 compounds from ChEMBL document CHEMBL1140493, “Quantitative structure-activity relationship studies for prediction of antimicrobial activity of synthesized 2,4-hexadienoic acid derivatives” (Bioorg Med Chem Lett, 2007).

For one series, the system named is Aspergillus niger. Put plainly: Antifungal activity against Aspergillus niger after 7 days by twofold serial dilution method. In kind it is functional. To be noted: 168 h, read-out: -Log MIC.
Series [1] is described as follows: Partition coefficient, log P of the compound. The settings on record: octanol/water.
A further series has as its system Bacillus subtilis. Put plainly: Antimicrobial activity against Bacillus subtilis after 24 hrs by twofold serial dilution method. It counts as functional. The settings on record: read-out: -Log MIC.
Another series concerns Staphylococcus aureus. In words: Antimicrobial activity against Staphylococcus aureus after 24 hrs by twofold serial dilution method. It counts as functional. To be noted: read-out: -Log MIC.
For the next series, the system named is Candida albicans. In words: Antifungal activity against Candida albicans after 2 days by twofold serial dilution method. In kind it is functional. To be noted: 48 h, read-out: -Log MIC.
A further series relates to Escherichia coli. Put plainly: Antimicrobial activity against Escherichia coli after 24 hrs by twofold serial dilution method. In kind it is functional. The settings on record: read-out: -Log MIC.

Molecules are shown by their SMILES. ≈ marks a conversion by molar mass, not a printed value.

In the case of `C/C=C/C=C/C(=O)OC(C)C`, the MIC with Aspergillus niger came out at 56.2 µM (≈ 8.67 µg/mL); with Bacillus subtilis it was 63.1 µM (≈ 9.73 µg/mL); with Staphylococcus aureus it was 81.3 µM (≈ 12.5 µg/mL); in the series with Candida albicans it was 63.1 µM (≈ 9.73 µg/mL). For the same compound, the logP in series [1] was 2.26.
As for `C/C=C/C=C/C(=O)NN`, the logP in series [1] amounted to 0.59. The MIC with Bacillus subtilis and with Candida albicans was 100 µM (≈ 12.6 µg/mL) throughout.
As to `C/C=C/C=C/C(=O)Nc1cccc(O)c1`, the MIC in the series with Aspergillus niger was 69.2 µM (≈ 14.1 µg/mL); with Bacillus subtilis it was 53.7 µM (≈ 10.9 µg/mL); in the series with Staphylococcus aureus, 89.1 µM (≈ 18.1 µg/mL); in the series on Escherichia coli, 100 µM (≈ 20.3 µg/mL); in the series with Candida albicans, 53.7 µM (≈ 10.9 µg/mL). In series [1], this compound had a logP of 2.25.
In the case of `C/C=C/C=C/C(=O)OCCCCCCC`, the MIC was determined as 58.9 µM (≈ 12.4 µg/mL) in the series on Aspergillus niger; 50.1 µM (≈ 10.5 µg/mL) in the series with Bacillus subtilis; 58.9 µM (≈ 12.4 µg/mL) in the series on Staphylococcus aureus; 79.4 µM (≈ 16.7 µg/mL) with Escherichia coli; 58.9 µM (≈ 12.4 µg/mL) in the series with Candida albicans. Further, the logP in series [1] worked out at 3.9.
In the case of `C/C=C/C=C/C(=O)OCCCCC`, the MIC with Aspergillus niger was found to be 69.2 µM (≈ 12.6 µg/mL); in the series on Bacillus subtilis, 63.1 µM (≈ 11.5 µg/mL); with Staphylococcus aureus it was 79.4 µM (≈ 14.5 µg/mL); with Escherichia coli, 100 µM (≈ 18.2 µg/mL); in the series on Candida albicans, 50.1 µM (≈ 9.13 µg/mL). Besides, the logP in series [1] was found to be 3.1.
`C/C=C/C=C/C(=O)OC(C)(C)C`: the MIC in the series with Aspergillus niger is 74.1 µM (≈ 12.5 µg/mL); with Bacillus subtilis, 50.1 µM (≈ 8.43 µg/mL); with Staphylococcus aureus, 74.1 µM (≈ 12.5 µg/mL); in the series on Escherichia coli, 83.2 µM (≈ 14 µg/mL); with Candida albicans it was 53.7 µM (≈ 9.03 µg/mL). In series [1], this compound gave a logP of 2.33.
With `C/C=C/C=C/C(=O)OCCCCCC`, the MIC with Aspergillus niger was found to be 63.1 µM (≈ 12.4 µg/mL); in the series on Bacillus subtilis, 63.1 µM (≈ 12.4 µg/mL); in the series with Staphylococcus aureus it was 100 µM (≈ 19.6 µg/mL); in the series on Candida albicans it was 51.3 µM (≈ 10.1 µg/mL). In series [1], this compound yielded a logP of 3.5.
On to `C/C=C/C=C/C(=O)Nc1ccc([N+](=O)[O-])cc1`, for which the MIC is 53.7 µM (≈ 12.5 µg/mL) in the series with Aspergillus niger; 38.9 µM (≈ 9.03 µg/mL) with Bacillus subtilis; 60.3 µM (≈ 14 µg/mL) with Staphylococcus aureus; 60.3 µM (≈ 14 µg/mL) in the series with Escherichia coli; 53.7 µM (≈ 12.5 µg/mL) with Candida albicans. In addition, in series [1], the logP stood at 2.49.
As for `C/C=C/C=C/C(=O)N1CCCCC1`, the MIC was determined as 63.1 µM (≈ 11.3 µg/mL) in the series with Aspergillus niger, 61.7 µM (≈ 11.1 µg/mL) in the series on Bacillus subtilis, 77.6 µM (≈ 13.9 µg/mL) with Staphylococcus aureus and 69.2 µM (≈ 12.4 µg/mL) in the series with Candida albicans. The compound further displayed a lipophilicity (logP) in series [1] of 1.82.
Regarding `C/C=C/C=C/C(=O)Nc1ccc(C)cc1`, the MIC in the series on Aspergillus niger is 34.7 µM (≈ 6.98 µg/mL); in the series on Bacillus subtilis, 55 µM (≈ 11.1 µg/mL); in the series on Staphylococcus aureus it was 61.7 µM (≈ 12.4 µg/mL); in the series on Escherichia coli, 100 µM (≈ 20.1 µg/mL); in the series on Candida albicans it was 55 µM (≈ 11.1 µg/mL). Moreover, the logP in series [1] stood at 3.
Take `C/C=C/C=C/C(=O)OC` [METHYL SORBATE]: the minimum inhibitory concentration (MIC) came to 100 µM (≈ 12.6 µg/mL) in the series on Aspergillus niger, 79.4 µM (≈ 10 µg/mL) in the series with Bacillus subtilis, 100 µM (≈ 12.6 µg/mL) with Staphylococcus aureus and 79.4 µM (≈ 10 µg/mL) in the series with Candida albicans. Also, the logP in series [1] was found to be 1.5.
On to `C/C=C/C=C/C(=O)OCCC`, for which the MIC with Aspergillus niger is 81.3 µM (≈ 12.5 µg/mL); with Bacillus subtilis it was 70.8 µM (≈ 10.9 µg/mL); with Candida albicans it was 70.8 µM (≈ 10.9 µg/mL). Moreover, the logP in series [1] was found to be 2.31.
Consider `C/C=C/C=C/C(=O)NCCC`, for which the MIC in the series on Aspergillus niger is 100 µM (≈ 15.3 µg/mL); with Bacillus subtilis, 72.4 µM (≈ 11.1 µg/mL); with Staphylococcus aureus, 100 µM (≈ 15.3 µg/mL); in the series on Candida albicans it was 81.3 µM (≈ 12.5 µg/mL). In series [1], this compound returned a logP of 1.66.
Take `C/C=C/C=C/C(=O)N(CCO)CCO`: the logP in series [1] stood at 0.21. For the same compound, the minimal inhibitory concentration (MIC) in the series on Bacillus subtilis was 63.1 µM (≈ 12.6 µg/mL); with Staphylococcus aureus, 79.4 µM (≈ 15.8 µg/mL); with Escherichia coli, 91.2 µM (≈ 18.2 µg/mL); in the series on Candida albicans, 50.1 µM (≈ 9.98 µg/mL).
With `C/C=C/C=C/C(=O)OCC(C)C`, the MIC in the series with Aspergillus niger was 63.1 µM (≈ 10.6 µg/mL); in the series on Bacillus subtilis it was 74.1 µM (≈ 12.5 µg/mL); with Staphylococcus aureus it was 100 µM (≈ 16.8 µg/mL); in the series on Candida albicans, 74.1 µM (≈ 12.5 µg/mL). In series [1], this compound registered a logP of 2.71.
For `C/C=C/C=C/C(=O)Nc1ccc(Br)cc1`, the MIC in the series with Aspergillus niger turned out to be 50.1 µM (≈ 13.3 µg/mL); with Bacillus subtilis, 47.9 µM (≈ 12.7 µg/mL); in the series on Staphylococcus aureus it was 37.2 µM (≈ 9.9 µg/mL); with Escherichia coli, 79.4 µM (≈ 21.1 µg/mL); in the series with Candida albicans, 46.8 µM (≈ 12.5 µg/mL). For the same compound, the logP in series [1] was 3.32.
Consider `C/C=C/C=C/C(=O)OCC`, for which the MIC in the series on Aspergillus niger amounted to 100 µM (≈ 14 µg/mL); in the series with Bacillus subtilis, 89.1 µM (≈ 12.5 µg/mL); in the series with Candida albicans, 77.6 µM (≈ 10.9 µg/mL). Also, in series [1], the logP came out at 1.84.
On to `C/C=C/C=C/C(=O)NCc1ccccc1`, for which the MIC in the series with Aspergillus niger was 61.7 µM (≈ 12.4 µg/mL); with Bacillus subtilis, 61.7 µM (≈ 12.4 µg/mL); in the series on Staphylococcus aureus, 70.8 µM (≈ 14.2 µg/mL); in the series on Escherichia coli, 100 µM (≈ 20.1 µg/mL); in the series with Candida albicans, 61.7 µM (≈ 12.4 µg/mL). Further, in series [1], the logP is 2.63.
For the compound `C/C=C/C=C/C(=O)OCc1ccccc1`, the MIC in the series on Aspergillus niger was 70.8 µM (≈ 14.3 µg/mL); in the series with Bacillus subtilis, 69.2 µM (≈ 14 µg/mL); with Staphylococcus aureus, 63.1 µM (≈ 12.8 µg/mL); in the series with Escherichia coli it was 100 µM (≈ 20.2 µg/mL); with Candida albicans, 61.7 µM (≈ 12.5 µg/mL). In series [1], this compound yielded a lipophilicity (logP) of 3.28.
As for `C/C=C/C=C/C(=O)Nc1cccc(Cl)c1`, the MIC in the series on Aspergillus niger was determined as 39.8 µM (≈ 8.82 µg/mL); with Bacillus subtilis, 50.1 µM (≈ 11.1 µg/mL); with Staphylococcus aureus, 63.1 µM (≈ 14 µg/mL); in the series on Escherichia coli, 72.4 µM (≈ 16.1 µg/mL); in the series with Candida albicans, 50.1 µM (≈ 11.1 µg/mL). Further, the logP in series [1] is 3.05.
Turning to `C/C=C/C=C/C(=O)NCC`, the MIC in the series with Aspergillus niger was determined as 89.1 µM (≈ 12.4 µg/mL); with Bacillus subtilis, 89.1 µM (≈ 12.4 µg/mL); with Candida albicans it was 79.4 µM (≈ 11.1 µg/mL). Moreover, the logP in series [1] is 1.19.
